Measured values taken from article PMC10964233, “Antigen-Mimic Nanoparticles in Ultrasensitive on-Chip Integrated Anti-p53 Antibody Quantification” (ACS Sensors, 2024).

Columns and labels:
[1] = test system: DO-1 peptide/HRP-IONPs with Con A-modified SPCEs; assay: Assay specificity (SWV responses of interferents); conditions: equivalent MAC immunoisolation conditions, Figure S17
Description: Following a 10 min incubation of the antibody–IONP immunocomplexes on Con A-modified SPCEs, and subsequent washing with PBS, 100 μL of the high-sensitivity TMB substrate was added and left to react for 5 min. Square-wave voltammetry (SWV) scans were then conducted from +1.0 to −0.5 V (vs Ag/AgCl), at an amplitude of 20 mV, a potential step of 2 mV, and a frequency of 50 Hz. […] Recovery assays were conducted using DO-1 antibodies spiked into 1.0 mg/mL BSA or 1.0% human serum (human male AB plasma, Sigma, UK).
To evaluate the performance in spiked samples, recovery tests were performed in 1.0 mg/mL BSA and diluted human serum.

[2] = test system: Con A-modified electrode interfaces; assay: Antibody selectivity of Con A-modified electrode interfaces; format: binding; conditions: 1.0 mg/mL nonspecific protein; Figure S7
[3] = target: Concanavalin A; assay: SPR + other: electrochemical impedance spectroscopy; SPR at Con A-saturated gold chips with a BSA-saturated surface as reference (298 K, 30 uL/min, 10 mM PBS pH 7.4); EIS at Con A-modified SPCEs in 5 mM [Fe(CN)6]3-/4- PBS pH 7.4; both responses fitted to Langmuir-Freundlich isotherms, Kd from the plot mean

## bovine serum albumin [BSA]
[1]; 1.0 mg/mL
  Voltammetric response relative to 50 ng/mL DO-1 antibody: < 10%
[2]
  Response at Con A interface relative to DO-1 antibody: < 10%

## immunoglobulin G
[1]; 10.0 μg/mL (antibody control)
  Voltammetric response relative to 50 ng/mL DO-1 antibody: < 10%

## monoclonal DO-1 antibody
[3]
  Kd: 13.6 nM
